Test results: ChEMBL document CHEMBL2046271, “Terpenes from Copaifera demonstrated in vitro antiparasitic and synergic activity” (J Med Chem, 2012)
Active and inactive are the calls of the source. The rule behind the calls is not given here.

What was measured:
Trypanosoma cruzi [1] = assay: Antitrypanosomal activity against Trypanosoma cruzi Y infected in monkey LLC-MK2 cells assessed as reduction in number of amastigotes after 96 hrs by Geimsa staining method; assay type: functional; design: concentration or dose not given beside the values
Trypanosoma cruzi [2] = assay: Antitrypanosomal activity against Trypanosoma cruzi Y epimastigotes after 96 hrs by neubauer chamber; assay type: functional, organism-based
Trypanosoma cruzi [3] = assay: Antitrypanosomal activity against Trypanosoma cruzi Y trymastigotes infected in monkey LLC-MK2 cells after 24 hrs by Brenner counter method; assay type: functional, organism-based; settings: LLC-MK2, 24 h
Trypanosoma cruzi [4] = assay: Antitrypanosomal activity against Trypanosoma cruzi Y amastigotes infected in monkey LLC-MK2 cells after 96 hrs by Geimsa staining method; assay type: functional, organism-based; settings: LLC-MK2, 96 h
[5] = Cytotoxicity against monkey LLC-MK2 cells after 96 hrs by sulforhodamine B assay; assay type: cell-based, Macaca mulatta; settings: rhesus monkey
[6] = Toxicity in human RBC assessed as hemolysis after 3 hrs; assay type: cell-based, Erythrocyte; settings: red blood cells
[7] = Selectivity ratio of CC50 for monkey LLC-MK2 cells to IC50 for Trypanosoma cruzi Y amastigotes; assay type: ADME, cell-based; settings: LLC-MK2 cells versus Trypanosoma cruzi Y amastigotes, read-out: Ratio CC50/IC50
Trypanosoma cruzi [8] = assay: Antitrypanosomal activity against Trypanosoma cruzi Y epimastigotes assessed as lipid peroxidation at 400 uM after 6 hrs; assay type: functional
Trypanosoma cruzi [9] = assay: Antitrypanosomal activity against Trypanosoma cruzi Y epimastigotes assessed as gated cells in lower left quadrant at 400 uM after 3 hrs by propidium iodide staining-based flow cytometric analysis (reference value: 89.35%); assay type: functional
Trypanosoma cruzi [10] = assay: Antitrypanosomal activity against Trypanosoma cruzi Y epimastigotes assessed as gated cells in lower right quadrant at 400 uM after 3 hrs by propidium iodide staining-based flow cytometric analysis (reference value: 5.41%); assay type: functional
Trypanosoma cruzi [11] = assay: Antitrypanosomal activity against Trypanosoma cruzi Y epimastigotes assessed as gated cells in upper right quadrant at 400 uM after 3 hrs by propidium iodide staining-based flow cytometric analysis (reference value: 1.40%); assay type: functional
Trypanosoma cruzi [12] = assay: Antitrypanosomal activity against Trypanosoma cruzi Y epimastigotes assessed as gated cells in upper left quadrant at 400 uM after 3 hrs by propidium iodide staining-based flow cytometric analysis (reference value: 3.76%); assay type: functional
Trypanosoma cruzi [13] = assay: Antitrypanosomal activity against Trypanosoma cruzi Y epimastigotes assessed as gated cells in lower left quadrant at 400 uM after 3 hrs by rhodamine 123 staining-based flow cytometric analysis (reference value: 2.40%); assay type: functional
Trypanosoma cruzi [14] = assay: Antitrypanosomal activity against Trypanosoma cruzi Y epimastigotes assessed as gated cells in lower right quadrant at 400 uM after 3 hrs by rhodamine 123 staining-based flow cytometric analysis (reference value: 1.12%); assay type: functional
Trypanosoma cruzi [15] = assay: Antitrypanosomal activity against Trypanosoma cruzi Y epimastigotes assessed as gated cells in upper right quadrant at 400 uM after 3 hrs by rhodamine 123 staining-based flow cytometric analysis (reference value: 94.94%); assay type: functional
Trypanosoma cruzi [16] = assay: Antitrypanosomal activity against Trypanosoma cruzi Y epimastigotes assessed as gated cells in upper left quadrant at 400 uM after 3 hrs by rhodamine 123 staining-based flow cytometric analysis (reference value: 1.54%); assay type: functional
Trypanosoma cruzi [17] = assay: Antitrypanosomal activity against Trypanosoma cruzi Y trymastigotes infected in monkey LLC-MK2 cells after 24 hrs by Brenner counter method in presence of copalic; assay type: functional
Trypanosoma cruzi [18] = assay: Antitrypanosomal activity against Trypanosoma cruzi Y trymastigotes infected in monkey LLC-MK2 cells after 24 hrs by Brenner counter method in presence of beta-hydroxycopalic; assay type: functional
Trypanosoma cruzi [19] = assay: Antitrypanosomal activity against Trypanosoma cruzi Y epimastigotes assessed as kinetoplast disorganisation at compound IC50 concentration after 96 hrs by transmission electron microscopic analysis; assay type: functional, organism-based
Trypanosoma cruzi [20] = assay: Antitrypanosomal activity against Trypanosoma cruzi Y epimastigotes assessed as formation of concentric membranous vacuoles at compound IC50 concentration after 96 hrs by transmission electron microscopic analysis; assay type: functional, organism-based
[21] = Toxicity in human RBC assessed as hemolysis at 1552 uM after 3 hrs; assay type: cell-based, Erythrocyte; settings: red blood cells, read-out: Activity
Trypanosoma cruzi [22] = assay: Antitrypanosomal activity against Trypanosoma cruzi Y epimastigotes assessed as organelle disorganization at compound IC50 concentration after 96 hrs by transmission electron microscopic analysis; assay type: functional, organism-based
Trypanosoma cruzi [23] = assay: Antitrypanosomal activity against Trypanosoma cruzi Y epimastigotes assessed as membranous vacuole formation in all body parts at compound IC50 concentration after 96 hrs by transmission electron microscopic analysis; assay type: functional, organism-based
Trypanosoma cruzi [24] = assay: Antitrypanosomal activity against Trypanosoma cruzi Y epimastigotes assessed as pronounced swelling of mitochondria at compound IC50 concentration after 96 hrs by transmission electron microscopic analysis; assay type: functional, organism-based

IC50 (Trypanosoma cruzi [2]) [µM]	IC50 (Trypanosoma cruzi [4]) [µM]	SMILES	Activity (Trypanosoma cruzi [1]) [%]	EC50 (Trypanosoma cruzi [3]) [µM]	CC50 at 96 h [5] [µM]	HC50 at 3 h [6] [µM]	selectivity ratio [7]	Activity (Trypanosoma cruzi [8])	Activity (Trypanosoma cruzi [9]) [%]	Activity (Trypanosoma cruzi [10]) [%]	Activity (Trypanosoma cruzi [11]) [%]	Activity (Trypanosoma cruzi [12]) [%]	Activity (Trypanosoma cruzi [13]) [%]	Activity (Trypanosoma cruzi [14]) [%]	Activity (Trypanosoma cruzi [15]) [%]	Activity (Trypanosoma cruzi [16]) [%]	also measured
168	28.4	C=C1CC[C@@H]2[C@](C)(CCC[C@@]2(C)C(=O)O)[C@H]1CCc1ccoc1 [POLYALTIC ACID]	38	965	60.1	> 1580	2.1	inactive	26.71	25.8	29.09	16.7	1.85	0.91	95.96	1.28	–
78.4	63.7	C=C1CC/C=C(\C)CC[C@@H]2[C@@H]1CC2(C)C [BETA-CARYOPHYLLENE]	25	1590	1720	> 2450	26.9	30%	9.53	0.26	11.4	78.81	52.01	15.47	29.35	3.17	fractional inhibitory concentration index (FICI) (Trypanosoma cruzi [17]): 0.12; fractional inhibitory concentration index (FICI) (Trypanosoma cruzi [18]): 0.86; Activity (Trypanosoma cruzi [19]): Active; Activity (Trypanosoma cruzi [20]): Active
86.8	14.9	C=C1CC[C@@H]2[C@](C)(CCC[C@]2(C)C(=O)O)[C@H]1CC/C(C)=C/C(=O)O [AGATHIC ACID]	38	823	56.8	1050	3.8	inactive	14.2	2.51	32.97	50.32	2.07	0.45	84.11	13.37	–
854	18.6	C=C1CC[C@@H]2[C@](C)(CCC[C@@]2(C)C(=O)O)[C@H]1CC[C@H](C)CC(=O)O [PINIFOLIC ACID]	25	1630	252	> 1550	13.5	inactive	91.66	3.85	0.71	3.78	1.02	0.21	97.96	0.81	hemolysis at 3 h, 1552 µM [21]: 8%
41.2	1.8	C=C1CC[C@@H]2C(C)(C)[C@@H](O)CC[C@@]2(C)[C@@H]1CC/C(C)=C/C(=O)O	40	453	31.2	125	17.3	inactive	2.56	0.15	24.29	73	2.27	0.01	73.66	24.06	Activity (Trypanosoma cruzi [22]): Active; Activity (Trypanosoma cruzi [23]): Active
42.7	1.3	C=C1CC[C@@H]2C(C)(C)CCC[C@@]2(C)[C@@H]1CC/C(C)=C/C(=O)O [COPALIC ACID]	48	444	39.4	65.7	30.3	30%	5.17	0.71	50.54	43.58	2.86	0.1	72.57	24.47	Activity (Trypanosoma cruzi [24]): Active
–	–	C[C@@H]1[C@H](O)[C@@H](C)/C=C/C=C/C=C/C=C/C=C/C=C/C=C/[C@H](O[C@@H]2O[C@H](C)[C@@H](O)[C@H](N)[C@@H]2O)C[C@@H]2O[C@](O)(C[C@@H](O)C[C@@H](O)[C@H](O)CC[C@@H](O)C[C@@H](O)CC(=O)O[C@H]1C)C[C@H](O)[C@H]2C(=O)O [AMPHOTERICIN B]	–	–	–	50.8	–	–	–	–	–	–	–	–	–	–	–
167	16.5	C=C1C[C@@]23CC[C@H]4[C@@](C)(CCC[C@@]4(C)C(=O)O)[C@@H]2CC[C@@H]1C3 [KAURENOIC ACID]	38	596	76.1	464	4.6	inactive	22.65	13.27	18.53	45.55	4.85	0.96	91.64	2.55	–
83.3	2.5	C=C1CC[C@@H]2C(C)(C)CCC[C@@]2(C)[C@@H]1CC/C(C)=C/C(=O)OC [METHYL COPALATE]	38	377	69.1	1600	27.6	inactive	85.91	9.22	2.25	2.62	0.66	0.21	98.49	0.64	–

SMILES	IC50 (Trypanosoma cruzi [2]) [µM]	IC50 (Trypanosoma cruzi [4]) [µM]	Activity (Trypanosoma cruzi [1]) [%]	EC50 (Trypanosoma cruzi [3]) [µM]	CC50 at 96 h [5] [µM]	HC50 at 3 h [6] [µM]	selectivity ratio [7]	Activity (Trypanosoma cruzi [8])	Activity (Trypanosoma cruzi [9]) [%]	Activity (Trypanosoma cruzi [10]) [%]	Activity (Trypanosoma cruzi [11]) [%]	Activity (Trypanosoma cruzi [12]) [%]	Activity (Trypanosoma cruzi [13]) [%]	Activity (Trypanosoma cruzi [14]) [%]	Activity (Trypanosoma cruzi [15]) [%]	Activity (Trypanosoma cruzi [16]) [%]	also measured
O=C(Cn1ccnc1[N+](=O)[O-])NCc1ccccc1 [BENZNIDAZOLE]	6.5	19.2	–	34.5	615	> 1920	32	–	–	–	–	–	–	–	–	–	fractional inhibitory concentration index (FICI) (Trypanosoma cruzi [17]): 0.95; fractional inhibitory concentration index (FICI) (Trypanosoma cruzi [18]): 1.01
